Values joined by “and” are separate entries in the source; they are usually repeats but may differ in a detail not shown here. Equal values may be shown once. Inconclusive results and toxic doses are left out.
Test system: P388 leukemia ip, CD2F1 mice, survival T/C
Test: NCI In Vivo Anticancer Drug Screen. Data for tumor model P388 Leukemia (intraperitoneal) in CD2F1 (CDF1) mice
Settings: endpoint: median survival time, higher = longer survival
How it was run: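 Mice carrying the transplanted tumor received test compound or vehicle. Survival was recorded in each group, and the value is the treated-group measurement divided by that of the vehicle-treated control group.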

[1] = dose: 50.0 mg/kg/injection, schedule: Q01DX005 (ip), vehicle: saline
[2] = dose: 100.0 mg/kg/injection, schedule: Q01DX005 (ip), vehicle: saline
[3] = dose: 100.0 mg/kg/injection, schedule: Q01DX001 (ip), vehicle: Klucel (hydroxypropylcellulose) (HPC)
[4] = dose: 200.0 mg/kg/injection, schedule: Q01DX001 (ip), vehicle: Klucel (hydroxypropylcellulose) (HPC)
[5] = dose: 400.0 mg/kg/injection, schedule: Q01DX001 (ip), vehicle: Klucel (hydroxypropylcellulose) (HPC)
[6] = dose: 50.0 mg/kg/injection, schedule: Q01DX009 (ip), vehicle: saline
[7] = dose: 100.0 mg/kg/injection, schedule: Q01DX009 (ip), vehicle: saline
[8] = dose: 200.0 mg/kg/injection, schedule: Q01DX009 (ip), vehicle: saline
[9] = dose: 25.0 mg/kg/injection, schedule: Q04DX002 (ip), vehicle: saline with Tween-80
[10] = dose: 50.0 mg/kg/injection, schedule: Q04DX002 (ip), vehicle: saline with Tween-80
[11] = dose: 100.0 mg/kg/injection, schedule: Q04DX002 (ip), vehicle: saline with Tween-80
[12] = dose: 50.0 mg/kg/injection, schedule: Q01DX009 (ip), vehicle: saline with Tween-80
[13] = dose: 100.0 mg/kg/injection, schedule: Q01DX009 (ip), vehicle: saline with Tween-80
[14] = dose: 200.0 mg/kg/injection, schedule: Q01DX009 (ip), vehicle: saline with Tween-80
[15] = dose: 25.0 mg/kg/injection, schedule: Q01DX009 (ip), vehicle: saline with Tween-80
[16] = dose: 60.0 mg/kg/injection, schedule: Q01DX005 (ip), vehicle: Klucel (hydroxypropylcellulose) (HPC)
[17] = dose: 120.0 mg/kg/injection, schedule: Q01DX005 (ip), vehicle: Klucel (hydroxypropylcellulose) (HPC)
[18] = dose: 240.0 mg/kg/injection, schedule: Q01DX005 (ip), vehicle: Klucel (hydroxypropylcellulose) (HPC)
[19] = dose: 50.0 mg/kg/injection, schedule: Q01DX005 (ip), vehicle: saline with Tween-80
[20] = dose: 100.0 mg/kg/injection, schedule: Q01DX005 (ip), vehicle: saline with Tween-80
[21] = dose: 200.0 mg/kg/injection, schedule: Q01DX005 (ip), vehicle: saline with Tween-80

With `OCC12CC=CCC1C1CC=CCC1O2` (configuration not stated) the T/C [1] was 101 % of control, the T/C [2] was 99 % of control and the T/C (dose: 200.0 mg/kg/injection, schedule: Q01DX005 (ip), vehicle: saline) was 103 % of control.

With `O=C(OC1(c2ccc3ccccc3c2)OC(=O)c2ccccc21)c1ccccc1C(=O)c1cccc2ccccc12` (configuration not stated) the T/C [3] was 92 % of control, the T/C [4] was 91 % of control and the T/C [5] was 91 % of control.

For `O=C(O)CCc1ccc(O)c(O)c1`, the T/C [6] was 102 % of control and 111 % of control, the T/C [7] was 100 % of control and 111 % of control and the T/C [8] was 108 % of control and 110 % of control. For the same molecule, the T/C (dose: 400.0 mg/kg/injection, schedule: Q01DX009 (ip), vehicle: saline) was 111 % of control and 115 % of control.

For `Cc1cc(C)n(C(=N)/C(C#N)=N/N(C)c2ccccc2)n1`, the T/C [9] was 100 % of control, the T/C [10] was 93 % of control and the T/C [11] was 90 % of control.

With `c1ccc(-c2cc3ccccc3[nH]2)cc1` the T/C [12] was 90 % of control, the T/C [13] was 104 % of control and the T/C [14] was 102 % of control.

With `Cc1cccc(Cl)c1NC(=O)N(C)c1ccccc1` the T/C (dose: 60.0 mg/kg/injection, schedule: Q01DX005 (ip), vehicle: saline with Tween-80) was 99 % of control, the T/C (dose: 120.0 mg/kg/injection, schedule: Q01DX005 (ip), vehicle: saline with Tween-80) was 100 % of control and the T/C (dose: 240.0 mg/kg/injection, schedule: Q01DX005 (ip), vehicle: saline with Tween-80) was 97 % of control.

In the case of `Oc1cccc2c1[O][Sb][O]2`, the T/C (dose: 4.0 mg/kg/injection, schedule: Q01DX009 (ip), vehicle: Klucel (hydroxypropylcellulose) (HPC)) is reported as 120 % of control, the T/C (dose: 4.0 mg/kg/injection, schedule: Q03HX016 (ip), vehicle: Klucel (hydroxypropylcellulose) (HPC)) is reported as 101 % of control and the T/C (dose: 4.0 mg/kg/injection, schedule: Q03HX024 (ip), vehicle: Klucel (hydroxypropylcellulose) (HPC)) is reported as 103 % of control. For the same molecule, the T/C (dose: 8.0 mg/kg/injection, schedule: Q03HX024 (ip), vehicle: Klucel (hydroxypropylcellulose) (HPC)) was 116 % of control, the T/C [6] was 166 % of control and the T/C (dose: 64.0 mg/kg/injection, schedule: Q01DX001 (ip), vehicle: Klucel (hydroxypropylcellulose) (HPC)) was 122 % of control. The T/C (dose: 128.0 mg/kg/injection, schedule: Q01DX001 (ip), vehicle: Klucel (hydroxypropylcellulose) (HPC)) was 115 % of control.

For `O=C1c2ccccc2C(=O)N1c1nncs1`, the T/C [11] was 99 % of control, the T/C (dose: 200.0 mg/kg/injection, schedule: Q04DX002 (ip), vehicle: saline with Tween-80) was 99 % of control and the T/C (dose: 400.0 mg/kg/injection, schedule: Q04DX002 (ip), vehicle: saline with Tween-80) was 101 % of control.

With `CCCNCC(O)c1cc(C(F)(F)F)nc2c(C(F)(F)F)cccc12` (configuration not stated) the T/C (dose: 12.5 mg/kg/injection, schedule: Q01DX009 (ip), vehicle: saline with Tween-80) was 99 % of control, the T/C [15] was 95 % of control and the T/C [12] was 107 % of control.

For `CCCC(=O)Nc1cc([N+](=O)[O-])c([N+](=O)[O-])cc1OC`, the T/C [16] was 94 % of control, the T/C [17] was 91 % of control and the T/C [18] was 94 % of control.

`NCC(O)c1ccc(Nc2ccnc3cc(Cl)ccc23)cc1` (configuration not stated) was tested, and the T/C [1] was 114 % of control and the T/C [2] was 105 % of control.

With `N#CSc1ccc2nc(N)sc2c1` the T/C (dose: 6.25 mg/kg/injection, schedule: Q01DX009 (ip), vehicle: Klucel (hydroxypropylcellulose) (HPC)) was 111 % of control, the T/C (dose: 12.5 mg/kg/injection, schedule: Q01DX009 (ip), vehicle: Klucel (hydroxypropylcellulose) (HPC)) was 111 % of control and the T/C (dose: 25.0 mg/kg/injection, schedule: Q01DX009 (ip), vehicle: Klucel (hydroxypropylcellulose) (HPC)) was 104 % of control.

For `CCOC1CN(C(=O)ON)N1C(=O)ON` (configuration not stated), the T/C [6] was 109 % of control, the T/C [7] was 107 % of control and the T/C [8] was 89 % of control.

In the case of `CCOc1cccc(/C=N/N=C2\C(=O)Nc3c(Cl)cc(Cl)cc32)c1O`, the T/C [19] is reported as 89 % of control, the T/C [20] is reported as 92 % of control and the T/C [21] is reported as 91 % of control.

In the case of `CN1C(C)(C)CC2=C(c3ccccc3)c3ccccc3C2C1(C)C` (configuration not stated), the T/C [19] is reported as 106 % of control, the T/C [20] is reported as 100 % of control and the T/C [21] is reported as 102 % of control.

In the case of `CNc1nc(-c2ccc(C(C)(C)C)cc2)c(-c2ccc(C(C)(C)C)cc2)[nH]1`, the T/C [9] is reported as 117 % of control and 96 % of control and the T/C [10] is reported as 107 % of control and 121 % of control.

`Cc1cc(C)c(C2=NO[C@H]3c4ccccc4OC[C@@H]23)c(C)c1` was tested, and the T/C (dose: 50.0 mg/kg/injection, schedule: Q01DX005 (ip), vehicle: Klucel (hydroxypropylcellulose) (HPC)) was 105 % of control, the T/C (dose: 100.0 mg/kg/injection, schedule: Q01DX005 (ip), vehicle: Klucel (hydroxypropylcellulose) (HPC)) was 96 % of control and the T/C (dose: 200.0 mg/kg/injection, schedule: Q01DX005 (ip), vehicle: Klucel (hydroxypropylcellulose) (HPC)) was 89 % of control.

`C=C(C)CC1(CC)C(=O)NC(=S)NC1=O` was tested, and the T/C (dose: 50.0 mg/kg/injection, schedule: Q04DX003 (ip), vehicle: saline with Tween-80) was 104 % of control, the T/C (dose: 100.0 mg/kg/injection, schedule: Q04DX003 (ip), vehicle: saline with Tween-80) was 104 % of control and the T/C (dose: 200.0 mg/kg/injection, schedule: Q04DX003 (ip), vehicle: saline with Tween-80) was 86 % of control.

`Cc1cc(N(C)C)c2ccc3c(ccc4c(N(C)C)cc(C)nc43)c2n1` was tested, and the T/C [15] was 94 % of control, the T/C [13] was 103 % of control and the T/C [14] was 99 % of control.

For `Cn1c(CC(=O)O)csc1=S`, the T/C [19] was 93 % of control, the T/C [20] was 94 % of control and the T/C [21] was 89 % of control.

With `Cc1cccc2c1nc(C)c1nc(-c3ccccc3)oc12` the T/C (dose: 6.25 mg/kg/injection, schedule: Q01DX005 (ip), vehicle: saline with Tween-80) was 101 % of control, the T/C (dose: 12.5 mg/kg/injection, schedule: Q01DX005 (ip), vehicle: saline with Tween-80) was 91 % of control and the T/C (dose: 25.0 mg/kg/injection, schedule: Q01DX005 (ip), vehicle: saline with Tween-80) was 90 % of control. For the same molecule, the T/C [19] was 89 % of control, the T/C [20] was 89 % of control and the T/C [21] was 94 % of control.

With `Cc1cccc2c(=O)c(CCl)c(-c3ccccc3)sc12` the T/C [19] was 103 % of control, the T/C [20] was 116 % of control and the T/C [21] was 119 % of control.

With `CCN(CC)CCNc1ccc([N+](=O)[O-])c2sc3ccccc3c(=O)c12` the T/C (dose: 6.25 mg/kg/injection, schedule: Q01DX009 (ip), vehicle: saline) was 104 % of control, the T/C (dose: 12.5 mg/kg/injection, schedule: Q01DX009 (ip), vehicle: saline) was 112 % of control and the T/C (dose: 33.0 mg/kg/injection, schedule: Q01DX009 (ip), vehicle: saline) was 180 % of control. The T/C [6] was 220 % of control, the T/C (dose: 75.0 mg/kg/injection, schedule: Q01DX009 (ip), vehicle: saline) was 115 % of control and the T/C [13] was 158 % of control.

With `NC(=O)c1ccc(N=Nc2c(O)c3ccccc3[nH]c2=O)cc1` the T/C (dose: 50.0 mg/kg/injection, schedule: Q01DX005 (ip), vehicle: saline + Tween-80 + alcohol) was 105 % of control, the T/C (dose: 100.0 mg/kg/injection, schedule: Q01DX005 (ip), vehicle: saline + Tween-80 + alcohol) was 93 % of control and the T/C (dose: 200.0 mg/kg/injection, schedule: Q01DX005 (ip), vehicle: saline + Tween-80 + alcohol) was 89 % of control.

For `C(=N\Nc1nnc2c(n1)[nH]c1ccccc12)/c1cccnc1`, the T/C (dose: 12.5 mg/kg/injection, schedule: Q01DX005 (ip), vehicle: Klucel + Tween-80) was 106 % of control, the T/C (dose: 25.0 mg/kg/injection, schedule: Q01DX005 (ip), vehicle: Klucel + Tween-80) was 91 % of control and the T/C (dose: 50.0 mg/kg/injection, schedule: Q01DX005 (ip), vehicle: Klucel + Tween-80) was 87 % of control.

In the case of `CC(C)(C)N=C(CCC(C#N)(C#N)CCC(=NC(C)(C)C)Nc1ccccc1C#N)Nc1ccccc1C#N`, the T/C [12] is reported as 95 % of control, the T/C [13] is reported as 92 % of control and the T/C [14] is reported as 101 % of control.

In the case of `CC12CCCC([N+](=O)[O-])(C1)NC(=O)C2C#N` (configuration not stated), the T/C [16] is reported as 108 % of control, the T/C [17] is reported as 95 % of control and the T/C [18] is reported as 100 % of control.

`O=c1[nH]c2cc([N+](=O)[O-])ccc2nc1/C=C(\O)c1cccnc1` was tested, and the T/C [16] was 94 % of control, the T/C [17] was 88 % of control and the T/C [18] was 94 % of control.

In the case of `CC1=CC(O)C(O)C2(C)C1CC1OC(=O)C(OC3OC(CO)C(O)C(O)C3O)C3C(C)C(O)C4(O)OCC13C42` (configuration not stated), the T/C (dose: 2.13 mg/kg/injection, schedule: Q01DX005 (ip), vehicle: water) is reported as 101 % of control.

In the case of `c1ccc(C2CC(c3ccccc3)c3ccccc3O2)cc1` (configuration not stated), the T/C [3] is reported as 87 % of control, the T/C [4] is reported as 90 % of control and the T/C [5] is reported as 96 % of control.

— PubChem BioAssay AID330 (DTP/NCI, 2004)
